From publication PMC8807399, “Synthesis, Characterization, and in vivo Evaluation of a Novel Potent Autotaxin-Inhibitor” (Frontiers in Pharmacology, 2022)

Assays:
[1] = target: Glycine receptor (strychnine insensitive) (Rattus norvegicus, UniProt P35439); assay: Off-target screen Glycine receptor (strychnine insensitive); type: binding; settings: 10 µM; single point, duplicates
Serotonin transporter = target: T1, Serotonin transporter (Homo sapiens, UniProt P31645); assay: Off-target screen Serotonin transporter; type: binding; settings: 10 µM; single point, duplicates
T1 construct: purchased Eurofins CEREP SA
T1 sequence (P31645 whole entry): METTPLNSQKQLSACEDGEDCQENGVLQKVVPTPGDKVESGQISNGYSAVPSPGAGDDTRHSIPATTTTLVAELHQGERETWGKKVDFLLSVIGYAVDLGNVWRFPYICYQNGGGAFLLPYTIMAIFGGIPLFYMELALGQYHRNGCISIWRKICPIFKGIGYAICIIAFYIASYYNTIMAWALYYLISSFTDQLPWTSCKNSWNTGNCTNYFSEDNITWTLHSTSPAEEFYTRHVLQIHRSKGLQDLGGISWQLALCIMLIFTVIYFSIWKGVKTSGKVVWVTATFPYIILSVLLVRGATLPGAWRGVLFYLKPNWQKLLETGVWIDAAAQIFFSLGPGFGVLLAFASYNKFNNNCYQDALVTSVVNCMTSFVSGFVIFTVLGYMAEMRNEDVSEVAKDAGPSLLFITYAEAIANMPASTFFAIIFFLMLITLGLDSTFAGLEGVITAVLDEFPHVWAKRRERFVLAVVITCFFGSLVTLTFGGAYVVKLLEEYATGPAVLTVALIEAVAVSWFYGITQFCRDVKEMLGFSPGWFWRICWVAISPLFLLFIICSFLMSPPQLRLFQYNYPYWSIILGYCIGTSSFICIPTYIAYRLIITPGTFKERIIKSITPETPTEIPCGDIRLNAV

ZAP70 = target: T2, ZAP70 (Homo sapiens, UniProt P43403); assay: Off-target screen ZAP70; type: biochemical; settings: 10 µM; single point, duplicates
T2 construct: purchased Eurofins CEREP SA
T2 sequence (P43403 whole entry): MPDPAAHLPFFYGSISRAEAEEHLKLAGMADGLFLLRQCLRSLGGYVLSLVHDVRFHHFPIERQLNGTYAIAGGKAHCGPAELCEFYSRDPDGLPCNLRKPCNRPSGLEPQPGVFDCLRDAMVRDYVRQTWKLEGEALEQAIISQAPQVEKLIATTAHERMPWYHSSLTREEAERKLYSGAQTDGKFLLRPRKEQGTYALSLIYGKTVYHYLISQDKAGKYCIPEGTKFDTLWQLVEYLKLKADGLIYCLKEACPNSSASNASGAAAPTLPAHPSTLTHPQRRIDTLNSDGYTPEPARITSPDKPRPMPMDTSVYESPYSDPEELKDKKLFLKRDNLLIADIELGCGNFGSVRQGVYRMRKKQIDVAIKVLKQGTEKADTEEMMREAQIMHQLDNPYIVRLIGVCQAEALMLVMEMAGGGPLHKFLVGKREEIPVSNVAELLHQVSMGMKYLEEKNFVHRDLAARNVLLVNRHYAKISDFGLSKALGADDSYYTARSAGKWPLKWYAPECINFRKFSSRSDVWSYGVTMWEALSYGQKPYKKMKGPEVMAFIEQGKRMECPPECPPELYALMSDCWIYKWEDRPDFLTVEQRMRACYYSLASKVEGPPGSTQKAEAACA

EAG model rats = assay: Experimental autoimmune glaucoma (EAG) model; type: in vivo, rat; settings: ONA + ATX-i group; for IOP: 20 mg/kg food admix
Description: Calculations of the daily doses were based on average food intake of rats used in the studies. […] After mixing, ethanol was removed in vacuo until dryness.
The regular chow diet for the treatment groups was replaced with the same chow diet containing the treatment substance.
For the EAG model, preparation and immunization of the optic nerve antigen (ONA = bovine optic nerve homogenate) was carried out as previously described ([Laspas et al., 2011]; [Joachim et al., 2013]). Rats received an intraperitoneal injection with 8 mg/ml ONA. The antigen was mixed with incomplete Freund’s adjuvant (500 µl) plus 3 µg pertussis toxin (both Sigma Aldrich, St. Louis, MO, United States). The animals of the control group were injected with NaCl in Freund’s adjuvant and pertussis toxin. Rats were sacrificed 28 days after immunization.
Aqueous humor and serum were collected at the end of the EAG study. IgG levels were measured in serum and aqueous humor samples from the EAG study (both: 6-7 samples/group) using a sandwich enzyme-linked immunosorbent assay (ELISA) kit (eBioscience, Frankfurt, Germany) according to the manufacturer’s instructions. In brief, samples of aqueous humor from both groups were prediluted 1,000- or 2,000-fold in assay buffer, serum samples were diluted 100,000- or 200,000-fold in assay buffer. 75 µl of assay buffer were inserted into each sample well. 25 µl of the prediluted sample were added to the appropriate wells. All samples were incubated, and the absorbance was read at 405 nm using a microplate reader (AESKU.Reader with Gen5 ELISA Software, AESKU.DIAGNOSTICS, Wendelsheim, Germany) ([Reinehr et al., 2018]; [Tsai et al., 2018]).
The IOP was measured in both eyes of each animal in the EAG study with a rebound tonometer (Tonolab; iCare, Oy, Finland) 1 week before as well as 1, 2, and 3 weeks after immunization (n = 5–6 animals/group). The tonometer was held horizontally in front of the animal’s eye ([Pease et al., 2006]). 10 measurements per eye were recorded. From these values, the mean value was calculated ([Reinehr et al., 2019a]).
After explantation, eyes and optic nerves were fixed in 4% paraformaldehyde for 60 min (eyes) or 120 min (optic nerves) and then treated with 30% sucrose overnight. Afterwards, the retinas and optic nerves were embedded in NEG-50 Tissue-Tek medium (Thermo Fisher, Waltham, MA, United States). Cryo-cross sections of the eyes (10 µm) or longitudinal sections of the optic nerves (4 µm) were cut on a microtome (Thermo Fisher), mounted on Histobond Superfrost^+ slides (Thermo Fisher) and fixed in ice cold acetone for 10 min.
Longitudinal optic nerve sections (EAG: 5-6 nerves/group, I/R 14 days: 6-7 nerves/group) were stained with H&E and luxol fast blue (LFB). Of each staining, three areas per optic nerve section were documented with a microscope equipped with a CCD camera (Axio Imager M1; Zeiss) as previously described ([Palmhof et al., 2019]). One photo was taken of the proximal part, one of the middle and one of the distal part, right in front of the chiasma.
Cell infiltration in optic nerve sections stained with H&E was evaluated by using a scoring system ranging from 0 to 4 by a masked observer: 0 = no infiltration; 1 = mild cellular infiltration of the optic nerve or optic nerve sheath; 2 = moderate infiltration; 3 = severe infiltration; and 4 = massive infiltration of the optic nerve parenchyma and nodule infiltration ([Shindler et al., 2006]; [Horstmann et al., 2016]; [Renner et al., 2017]). The average score for each optic nerve was used for statistical analysis.
The grade of demyelination was monitored in optic nerve sections stained with LFB. Therefore, staining was scored from 0 to 2 and categorized as follows: 0 = no demyelination; 0.5 = mild demyelination; 1 = moderate demyelination; 1.5 = advanced demyelination; and 2 = severe demyelination up to dissolution of the tissue.

[2] = target: T3, Neprilysin (neutral endopeptidase) (Homo sapiens, UniProt P08473); assay: Off-target screen Neprilysin; type: biochemical; settings: 10 µM; single point, duplicates
T3 construct: purchased Eurofins CEREP SA
T3 sequence (P08473 whole entry): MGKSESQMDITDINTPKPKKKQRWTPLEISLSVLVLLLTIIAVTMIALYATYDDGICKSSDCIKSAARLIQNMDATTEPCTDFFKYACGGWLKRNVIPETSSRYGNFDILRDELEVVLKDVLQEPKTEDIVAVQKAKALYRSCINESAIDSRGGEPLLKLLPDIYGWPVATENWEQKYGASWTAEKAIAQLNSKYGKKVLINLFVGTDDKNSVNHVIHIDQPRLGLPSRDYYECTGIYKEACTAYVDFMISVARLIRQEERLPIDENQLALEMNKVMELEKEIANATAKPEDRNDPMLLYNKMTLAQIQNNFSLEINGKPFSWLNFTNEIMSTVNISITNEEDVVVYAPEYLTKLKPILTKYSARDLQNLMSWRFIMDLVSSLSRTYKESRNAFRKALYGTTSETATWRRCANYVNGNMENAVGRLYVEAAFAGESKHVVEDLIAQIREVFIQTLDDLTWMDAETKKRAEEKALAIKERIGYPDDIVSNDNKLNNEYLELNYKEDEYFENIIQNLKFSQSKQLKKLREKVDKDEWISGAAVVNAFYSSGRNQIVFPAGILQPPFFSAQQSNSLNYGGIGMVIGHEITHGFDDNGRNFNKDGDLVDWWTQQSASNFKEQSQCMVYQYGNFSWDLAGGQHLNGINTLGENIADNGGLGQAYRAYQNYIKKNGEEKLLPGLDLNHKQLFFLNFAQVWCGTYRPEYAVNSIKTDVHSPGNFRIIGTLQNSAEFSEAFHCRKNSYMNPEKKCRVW

Chain of Glycine receptor (strychnine insensitive) (P35439 394-800): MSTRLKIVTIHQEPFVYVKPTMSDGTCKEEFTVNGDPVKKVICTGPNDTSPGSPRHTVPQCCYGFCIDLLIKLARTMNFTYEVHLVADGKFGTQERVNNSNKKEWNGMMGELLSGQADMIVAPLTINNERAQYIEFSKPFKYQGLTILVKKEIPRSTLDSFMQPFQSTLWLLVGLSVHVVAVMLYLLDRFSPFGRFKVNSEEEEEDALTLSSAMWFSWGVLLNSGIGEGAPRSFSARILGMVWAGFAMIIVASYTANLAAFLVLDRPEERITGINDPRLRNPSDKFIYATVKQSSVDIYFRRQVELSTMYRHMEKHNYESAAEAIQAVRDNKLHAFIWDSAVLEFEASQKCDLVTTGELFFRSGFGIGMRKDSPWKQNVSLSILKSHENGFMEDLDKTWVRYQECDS

For `O=C(OCc1ccc(OC(F)(F)F)cc1)N1C[C@@H]2CN(C(=O)c3ccc4[nH]nnc4c3)C[C@H]2C1` [Compound 13, (3aS,6aS)-5-(1H-Benzotriazole-5-carbonyl)-hexahydro-pyrrolo[3,4-c]pyrrole-2-carboxylic acid 4-trifluoromethoxy-benzyl ester], the “Glycine receptor (strychnine insensitive) (r) [% inhib]” value [1] was 17 % inhib, the “Serotonin transporter (h) [% inhib]” value (Serotonin transporter) was 28 % inhib and the “ZAP70 (h) [% inhib]” value (ZAP70) was 9 % inhib. The IOP (EAG model rats; 1 week after immunization, ONA 10.44 ± 0.62, control 11.26 ± 0.54) was 10.54 ± 0.40 mmHg, the IOP (EAG model rats; 1 week before immunization, ONA 10.34 ± 0.67, control 10.36 ± 1.03) was 10.91 ± 0.50 mmHg and the IOP (EAG model rats; 2 weeks after immunization, ONA 10.74 ± 0.55, control 11.36 ± 0.52) was 10.85 ± 0.42 mmHg. For the same compound, the IOP (EAG model rats; 3 weeks after immunization, ONA 10.77 ± 0.77, control 11.47 ± 0.62) was 10.69 ± 0.60 mmHg, the “ED1+ and Iba1+ active microglia, optic nerve” value (EAG model rats; 28 days, ONA 0.27 ± 0.24, control 0.06 ± 0.11) was 0.22 ± 0.10 cells/image and the “Iba1+ microglia, optic nerve” value (EAG model rats; 28 days, ONA 3.14 ± 0.94, control 1.28 ± 0.15) was 2.96 ± 0.92 cells/image. For the same compound, the “ED1+ and Iba1+ microglia, retina” value (EAG model rats; 28 days, ONA 7.70 ± 6.27, control 1.52 ± 1.28) was 5.08 ± 1.86 cells/mm, the “GFAP area, retina” value (EAG model rats; 28 days, ONA 13.55 ± 3.42, control 9.72 ± 0.84) was 10.30 ± 2.29 area [%]/section and the “Iba1+ microglia cell count, retina” value (EAG model rats; 28 days, ONA 22.06 ± 7.81, control 13.67 ± 3.04) was 19.76 ± 2.82 cells/mm. For the same compound, the “Brn-3a+ RGC number, retina” value (EAG model rats; 28 days, ONA 29.47 ± 6.20, control 58.11 ± 4.22, p = 0.032 vs ONA) was 38.59 ± 4.33 cells/mm, the “Optic nerve LFB score” value (EAG model rats; 28 days, score 0-2, ONA 0.58 ± 0.20, control 0.31 ± 0.13) was 0.77 ± 0.66 and the “GFAP score, optic nerve” value (EAG model rats; 28 days, score 0-2, ONA 0.81 ± 0.17, control 0.71 ± 0.26) was 1.00 ± 0.29. The “Optic nerve SMI-32 score” value (EAG model rats; 28 days, score 0-2, ONA 0.91 ± 0.08, control 0.58 ± 0.14) was 0.75 ± 0.19, the “Optic nerve H&E score” value (EAG model rats; 28 days, score 0-4, ONA 1.22 ± 0.43, control 0.80 ± 0.51) was 1.27 ± 0.86 and the “Serum IgG level” value (EAG model rats; end of EAG study, ONA 15.78 ± 5.00, control 8.31 ± 5.76) was 12.30 ± 2.70 mg/mL. The “Aqueous humor IgG level” value (EAG model rats; end of EAG study, ONA 272.24 ± 98.17, control 62.31 ± 19.91, p = 0.025 vs ONA) was 167.26 ± 34.50 µg/mL and the “Neprilysin (neutral endopeptidase) (h) [% inhib]” value [2] was -29 % inhib.
